# Reference: patent publication US7674463B1, “Method of inhibiting angiogenesis by administration of a corticotropin releasing factor receptor 2 agonist” (Research Development Foundation, priority 1999, dated 2010)
# “Also recorded” adds a separate entry of the source. No end group written: not given here.
# What was measured:
# mice = experiment: hair growth over gel foam sponge implanted under shaved skin; assay type: in vivo; conditions: after five days
# Source text: Small regions area of mice were shaved over of their skin and gel foam sponges impregnated with bFGF and urocortin, various growth factors, and CRF antagonist astressin were surgically implanted under the shaved skin. […] Therefore, urocortin and bFGF stimulate rapid hair growth.
# CRFR2 = conditions: urocortin versus CRF; cited from earlier work
# wild type mice = experiment: cardiovascular response to intravenous infusion, wild type mice; assay type: in vivo
# Source text: (§1) The cardiovascular responses to intravenous infusion of urocortin and sodium nitroprusside, a vasodilator, were examined in mice (wild type: n 5; mutant: n=3) anesthetized with isofluorine. The arterial catheter for blood pressure recording was fabricated from a sterile PE-10 tubing softened and pulled to an outer diameter of ˜0.4 mm. The femoral artery was exposed, and the arterial catheter filled with heparin saline (500 U/ml) was implanted and secured with surgical threads and tissue glue (Vetbond). […] A second catheter was then implanted in the external jugular vein for intravenous infusion of drugs. Drug infusion was performed […] following completion of the cannulation procedure. The venous catheter was connected to a drug-filled syringe. Infusion was completed within 0.5-1.0 min. Both wild type and mutants received an identical dose of urocortin (0.1 μg in 200 μl of 0.9% saline) and saline (as a control).
# (§2) The doses used were determined from preliminary experiments with reference to data obtained from corresponding studies in Sprague Dawley rats (2). In order to verify that the lack of cardiovascular response to the urocortin injection in mutants was not attributed to the loss of ability of the mice to vasodilate, the mutant mice also received a second infusion of sodium nitroprusside (0.8 μg in 100 μl of 0.9% saline) following recovery of arterial pressure from the urocortin infusion. The mean arterial pressure (MAP) was determined from the blood pressure tracings.
# CRFR2 null mutant mice = experiment: cardiovascular response to intravenous infusion, CRFR2 null mutant mice; assay type: in vivo; conditions: for arterial pressure response to urocortin: intravenous infusion
# Source text: as §1, §2
Substance,hair growth in shaved area above implanted sponge (mice),affinity for CRFR2 relative to CRF (CRFR2) [fold],"depressor response (change in arterial pressure) (wild type mice; control mice, anesthetized, urocortin 0.1 μg intravenous infusion) [mm Hg]","persistence of the reduction in arterial pressure (recording period) (wild type mice; control mice, urocortin 0.1 μg intravenous infusion) [min]",mean arteriole pressure response to intravenous urocortin (wild type mice; wild type animals),arterial pressure response to urocortin (CRFR2 null mutant mice),arterial pressure response to urocortin (CRFR2 null mutant mice; listed as UCN),"reduction in arterial pressure, only 1 mutant mouse, transient (CRFR2 null mutant mice; urocortin 0.1 μg intravenous, likely attributable to injection pressure) [mmHg]"
astressin,Little hair growth,–,–,–,–,–,–,–
"urocortin (DNPSLSIDLTFHLLRTLLELARTQSQRERAEQNRIIFDSV; ends and bridges not checked; UniProt P55089 83-122, looked up) [a CRF-related peptide, thought to be the endogenous ligand for CRFR2]",–,~40,−28.3±2.0,90 to 120,dramatic decrease,no measurable responses; also recorded: no response,remarkable muted response,−3.5
